Laboratory results published in patent US8067458B2, “Alkoxyalkyl-substituted cyclic ketoenols” (Bayer Cropscience AG, priority 2006, dated 2011).
Several values for one entry are separate records, joined by “and”; a condition that tells them apart may be missing. Equal values may be shown once. Read-outs that look alike come from different tables or passages of the source.

Key:
Spring wheat = assay type: in vivo; conditions: post-emergence
[1] = system: caterpillars of the army worm (Spodoptera frugiperda); assay: Spodoptera frugiperda test (spray treatment); assay type: in vivo; conditions: 500 g/ha, maize leaf discs
Protocol: Solvent: 78 parts by weight of acetone • • 1.5 parts by weight of dimethylformamide Emulsifier: 0.5 part by weight of alkylaryl polyglycol ether A suitable preparation of active compound is prepared by mixing 1 part by weight of active compound with the stated amounts of solvent and emulsifier and diluting the concentrate with emulsifier-containing water to the desired concentration. Leaf discs of maize (Zea mays) are sprayed with a preparation of active compound at the desired concentration and after they have dried are populated with caterpillars of the army worm (Spodoptera frugiperda).

Spring barley = assay type: in vivo; conditions: post-emergence
Maize - Arsenal = assay: Greenhouse container trials with maize, safener 1 day prior to herbicide application, pre-emergence; assay type: in vivo; conditions: 28 days after application
Protocol: (§1) Seeds of monocotyledonous and dicotyledonous weed plants and crop plants are placed in sandy loam soil in wood fibre pots or in plastic pots and are covered with earth. The pots are easily fitted and then the soil surface is treated with the test compounds, formulated as wettable powders (WP) or liquids (EC) in various dosages, with a water application rate of 300 l/ha (converted). […] If the testing is also to look at whether safeners can improve the tolerance of the crop plants for test substances, the following options are used for the application of the safener: • seeds of the crop plants are dressed with the safener substance prior to sowing (the amount of safener is stated as a percentage, based on the seed weight) • crop plants are sprayed with the safener, with a defined application rate per hectare, prior to application of the test substances (typically 1 day before the test substances are applied) • the safener is applied together with the test substance in the form of a tank mix (the amount of safener is reported in g/ha or as a proportion relative to the herbicide). By comparing the effect of test substances on crop plants which have been treated with safener and without safener it is possible to assess the effect of the safener substance.

Maize - CECILIA = assay: as above; assay type: in vivo; conditions: 50 g a.i./ha, 28 days after application
Protocol: as §1

[2] = Determination of the log P values by HPLC on a reversed phase column (C18); assay type: physicochemical; conditions: 43° C., EEC Directive 79/831 Annex V.A8
Protocol: The log P values reported in the table were determined in accordance with EEC Directive 79/831 Annex V.A8 by means of HPLC (high performance liquid chromatography) on a reversed phase column (C18). Temperature: 43° C. […] Calibration was carried out with unbranched alkan-2-ones (having 3 to 16 carbon atoms) whose log P values are known (log P values determined on the basis of the retention times by means of linear interpolation between two successive alkanones).

[3] = Penetration of active compounds through enzymatically isolated cuticles of apple leaves; conditions: spray liquor on isolated cuticles; 20° C., 60% rh; average of 5 to 6 measurements
[4] = 28 days after application, 50 g a.i./ha
[5] = 28 days after application, 100 g a.i./ha
[6] = 28 days after application, 25 g a.i./ha
[7] = 25 g a.i./ha, 10 days after application
[8] = 50 g a.i./ha, 10 days after application
[9] = 10 days after application, 50 g a.i./ha
[10] = 10 days after application, 100 g a.i./ha
[11] = 10 days after application, 25 g a.i./ha
[12] = 10 days after application, 12.5 g a.i./ha

CCc1cc(C)cc(Br)c1C1=C(O)C(C)(COC)NC1=O (racemic) [I-a-6]
Spring wheat observed (%) (Spring wheat; [4]): 20%
Spring wheat observed (%) (Spring wheat; [5]): 30%

CCc1cc(Cl)cc(OC)c1C1=C(O)C(C)(COC)NC1=O (racemic) [I-a-10]
Spring wheat observed (%) (Spring wheat; 28 days after application, 12.5 g a.i./ha): 5%
Spring wheat observed (%) (Spring wheat; [6]): 15%
Spring wheat observed (%) (Spring wheat; [4]): 25%

COCC1(C)NC(=O)C(c2c(C)cc(C)cc2Cl)=C1O (racemic) [I-a-12]
activity (effect in %, caterpillars killed) [1]: ≥ 80%

CCc1cc(C)cc(C)c1C1=C(OC(=O)C(C)C)C(C)(COC)NC1=O (racemic) [I-b-4]
Spring barley observed (%) (Spring barley; [7]): 30%
Spring barley observed (%) (Spring barley; [8]): 40%
Spring barley observed (%) (Spring barley; [9]): 25%
Spring barley observed (%) (Spring barley; [10]): 65%
Spring wheat observed (%) (Spring wheat; 12.5 g a.i./ha, 10 days after application): 30%
Spring wheat observed (%) (Spring wheat; [7]): 50%
Spring wheat observed (%) (Spring wheat; [8]): 70%
Spring wheat observed (%) (Spring wheat; [11]): 10%
Spring wheat observed (%) (Spring wheat; [9]): 50%
Spring wheat observed (%) (Spring wheat; [10]): 75%
Spring wheat observed (%) (Spring wheat; [6]): 10%
Spring wheat observed (%) (Spring wheat; 28 days after application, 50 g a.i./ha, listed as Ex. I-b-4): 15% and 5%
Spring wheat observed (%) (Spring wheat; [5]): 30%

CCc1cc(C)cc(OC)c1C1=C(OC(=O)C(C)C)C(C)(COC)NC1=O (racemic) [I-b-9]
Spring barley observed (%) (Spring barley; [11]): 25%
Spring barley observed (%) (Spring barley; [9]): 75%
Spring barley observed (%) (Spring barley; [6]): 25%
Spring barley observed (%) (Spring barley; [4]): 70%
Spring wheat observed (%) (Spring wheat; [12]): 15%
Spring wheat observed (%) (Spring wheat; [11]): 60%
Spring wheat observed (%) (Spring wheat; [6]): 60%
Spring wheat observed (%) (Spring wheat; [4]): 85%

CCc1cc(Cl)cc(OC)c1C1=C(OC(=O)C(C)C)C(C)(COC)NC1=O (racemic) [I-b-10]
Maize - Arsenal observed (%) (Maize - Arsenal; 12.5 g a.i./ha): 5%
Maize - Arsenal observed (%) (Maize - Arsenal; 25 g a.i./ha): 15%
Maize - Arsenal observed (%) (Maize - Arsenal; 50 g a.i./ha): 25%
Maize - CECILIA observed (%) (Maize - CECILIA): 15%

CCc1cc(C)cc(C)c1C1=C(OC(=O)COC)C(C)(COC)NC1=O (racemic) [I-b-11]
Spring barley observed (%) (Spring barley; [12]): 10%
Spring barley observed (%) (Spring barley; [11]): 15%
Spring barley observed (%) (Spring barley; [9]): 50%
Spring barley observed (%) (Spring barley; [10]): 70%
Spring barley observed (%) (Spring barley; [4]): 25%
Spring barley observed (%) (Spring barley; [5]): 55%
Spring wheat observed (%) (Spring wheat; [11]): 10%
Spring wheat observed (%) (Spring wheat; [9]): 60%
Spring wheat observed (%) (Spring wheat; [6]): 10%
Spring wheat observed (%) (Spring wheat; [4]): 50%

CCc1cc(C)cc(C2CC2)c1CC(=O)NC(C)(COC)C(=O)OC (racemic) [II-20]
logP [2]: oil logP 3.13

COCC(C)(NC(=O)Cc1c(C2CC2)cc(C)cc1C1CC1)C(=O)OC (stereo not shown) [II-27]
logP [2]: logP 3.19

CCc1cc(C)cc(C)c1CC(=O)NC(C)(CCOC)C(=O)OC (stereo not shown) [II-28]
logP [2]: logP 3.19

COCCC(C)(NC(=O)Cc1c(C)cc(C)cc1C)C(=O)OC (stereo not shown) [II-29]
logP [2]: logP 2.86

CCc1cc(Cl)cc(OC)c1CC(=O)NC(C)(CCOC)C(=O)OC (stereo not shown) [II-33]
logP [2]: logP 3.21

CCOc1cc(Cl)cc(CC)c1CC(=O)NC(C)(CCOC)C(=O)OC (stereo not shown) [II-34]
logP [2]: logP 3.64

CCc1cc(C)cc(Br)c1CC(=O)NC(C)(CCOC)C(=O)OC (stereo not shown) [II-35]
logP [2]: logP 3.39

N.N.O=S(=O)(O)O [ammonium sulphate]
penetration through apple leaf cuticles (effect of additive, in words) [3]: significantly improves the penetration
